Results reported in US20260001875A1, “AMINOPYRIMIDINYL DERIVATIVES FOR THE TREATMENT OF PARKINSON'S DISEASE” (UNIVERSITY OF DUNDEE, priority 2022, published 2026).

Tests used:
[1] = test system: LRRK2^WT; test: Western blot LRRK2 degradation in WT MEFs; type: cell-based, mouse; conditions: WT MEFs and LRRK2^G2019S MEFs
Method: (§1) Western blot degradation assays for the LRRK2 protacs were performed with WT and PD-associated LRRK2 [G2019S] mouse embryonic fibroblasts (MEFs). The second-generation PROTACs were tested in parallel with the first generation PROTACs SD75, SD82, and SD100. The compounds were tested at 33 nM or […] concentrations for 4 hours or 24 hours, running two biological replicates per condition and achieving quantifications representative of both replicates. Analysis by quantitative immunoblotting was performed with readouts of the total LRRK2 (antibody recognizes epitope in C-terminus of protein), Rab10 pThr73 (physiological substrate) and LRRK2 pSer935 (biomarker phosphorylation site).
(§2) Primary MEFs were generated as described in a previous study (Wiggin et al., Mol. Cell Biol. 2002 April; 22(8):2871-81.). Briefly, the uterine horn was collected from adult female mice at day E12.5 and transferred to a 10 cm tissue culture dish containing cold PBS. Two forceps were used to tear the yolk sacs to isolate each embryo. Forceps were cleaned thoroughly with 70% ethanol between each embryo isolation. The embryos were culled, and a tissue piece was collected in a PCR tube for genotyping. The red tissue of the embryo, which grows to become the heart and liver, was removed. The remainder of the embryo was minced with a scalpel blade and incubated with 7.5 ml trypsin-EDTA solution for 10 minutes in a 37° C. tissue culture CO2 incubator. The dish was removed from the incubator and checked under a light microscope for single cells. 7.5 ml complete media was added to the trypsinised cells, and the cell suspension was transferred to a 15 ml Falcon tube, centrifuged at 1200 rpm for 5 minutes at room temperature. The trypsin was aspirated, the cell pellet was resuspended in 5 ml fresh complete media, and the cell suspension was plated in a 60 mm tissue culture dish and incubated in a 37° C., 5% CO2 tissue culture incubator. The MEFs at this stage were considered as passage 0 and were passaged and expanded for experimental use once the genotype was confirmed by allelic sequencing and immunoblotting. MEFs were cultured in Dulbecco's modified Eagle medium (DMEM) containing 10% (v/v) fetal bovine serum (FBS), 2 mM L-glutamine, 100 U/ml penicillin, and 100 μg/ml streptomycin supplemented with 1× non-essential amino acids and 1 mM sodium pyruvate.
(§3) Culturing and passaging of adherent cell lines were carried out using aseptic technique in CL1 or CL2 (for PBMC isolation) biological safety cabinets. All cells were incubated in a 37° C. incubator with 5% CO2. Cell lines were regularly tested for mycoplasma contamination. For western blot assay, the cells were seeded in 6-well plates. After treating with testing compounds at indicated concentrations and time period, the media was removed and the cells were washed with PBS and lysed in 100 μl ice-cold complete lysis buffer containing 50 mM Tris-HCl pH 7.4, 1 mM EGTA, 10 mM 2-glycerophosphate, 50 mM sodium fluoride, 5 mM sodium pyrophosphate, 270 mM sucrose, supplemented with 1 μg/ml microcystin-LR, 1 mM sodium orthovanadate, complete EDTA-free protease inhibitor cocktail (Roche) and 1% (v/v) Triton X-100. The cells were immediately placed on ice and were scraped and collected into 1.5 ml Eppendorf tubes. Cell lysates were incubated on ice for 10 minutes prior to centrifugation at 15,000 g at 4° C. for 15 minutes. The cell pellet was discarded, and supernatant was collected for analysis by quantitative immunoblotting. For long term storage, the supernatant was flash frozen and stored at −80° C. Protein concentrations of cell lysates were determined using the Bradford assay.
(§4) Cell lysates containing a quarter of a volume of 4× NuPAGE LDS sample buffer (NP0007) supplemented with 5% β-mercaptoethanol, were heated at 95° C. for 5 minutes. […]

[2] = test system: Rab10 pThr73; test: Rab10 Thr73 dephosphorylation (immunoblot) in WT MEFs; type: cell-based, mouse; conditions: Mus musculus; for inhibition at 0.033 µM / inhibition at 1 µM: read-out: pRab10 inhibited in WT MEFs; for EC50: dose response, 4 h treatment, read-out: WT MEFs pRab10-dephosphrylation EC50
Outline: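 Wild-type mouse embryonic fibroblasts in 6-well plates were treated with LRRK2 PROTACs, with two biological replicates per condition. Cells were washed in PBS and lysed on ice in buffer containing phosphatase and protease inhibitors plus 1% Triton X-100, then clarified at 15,000 g. Rab10 Thr73 phosphorylation was measured by quantitative immunoblotting of 15 to 20 μg protein on 4-12% Bis-Tris gels.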

[3] = test system: Rab10 pThr73; test: Rab10 Thr73 dephosphorylation (immunoblot) in LRRK2^G2019S MEFs; type: cell-based; conditions: Mus musculus, read-out: pRab10 inhibited in LRRK2^G2019S MEFs
[4] = test system: Rab10 pThr73; test: as above; type: cell-based, mouse; conditions: Mus musculus; for inhibition at 1 µM: read-out: pRab10 inhibited in LRRK2^G2019S MEFs; for EC50: dose response, 4 h treatment, read-out: G2019S MEFs-pRab10-dephosphorylation EC50
[5] = target: T1, LRRK2^WT (Mus musculus, UniProt Q5S006); test: Western blot LRRK2 degradation in WT MEFs; type: cell-based; conditions: for DC50: dose response, 4 h treatment; for Dmax: read-out: Dmax on WT MEFs
T1 construct: endogenous in cells; host or cells: primary wild-type mouse embryonic fibroblasts (MEFs)
Method: as §1, §2, §3, §4

[6] = target: T2, LRRK2^G2019S (Mus musculus, UniProt Q5S006, G2019S); test: Western blot LRRK2 degradation in LRRK2^G2019S MEFs; type: cell-based; conditions: for DC50: dose response, 4 h treatment; for Dmax: read-out: Dmax on G2019S MEFs
T2 construct: endogenous in cells; host or cells: LRRK2[G2019S] mouse embryonic fibroblasts (MEFs)
Method: as §1, with “The” for “Western blot degradation assays for the LRRK2 protacs were performed with WT and PD-associated LRRK2 [G2019S] mouse embryonic fibroblasts (MEFs). The”
as §2
Culturing and passaging of adherent cell lines were carried out using aseptic technique in CL1 or CL2 (for PBMC isolation) biological safety cabinets. All cells were incubated in a 37° C. incubator with 5% CO2. Cell lines were regularly tested for mycoplasma contamination. For western blot assay, the cells were seeded in 6-well plates. […] The cells were immediately placed on ice and were scraped and collected into 1.5 ml Eppendorf tubes. Cell lysates were incubated on ice for 10 minutes prior to centrifugation at 15,000 g at 4° C. for 15 minutes. The cell pellet was discarded, and supernatant was collected for analysis by quantitative immunoblotting. For long term storage, the supernatant was flash frozen and stored at −80° C. Protein concentrations of cell lysates were determined using the Bradford assay.
Cell lysates containing a quarter of a volume of 4× NuPAGE LDS sample buffer (NP0007) supplemented with 5% β-mercaptoethanol, were heated at 95° C. for 5 minutes. 15 to 20 μg of samples were loaded onto pre-cast 4-12% Bis-Tris midi 20W or 26W gels (Thermofisher Scientific®, Cat #WG1402BOX or WG1403BOX) and resolved at 130 V for 2 hours with NuPAGE MOPS SDS running buffer (Thermofisher Scientific® Cat #NP0001-02). Proteins were electrophoretically transferred onto a 0.45 μm nitrocellulose membrane (GE Healthcare, Amersham Protran® Supported 0.45 mm NC) at 90 V for 90 min on ice in transfer buffer (48 mM Tris base and 39 mM glycine supplemented with 20% methanol). The transferred membrane was blocked with 5% (w/v) skim milk powder dissolved in tris-buffered saline with tween (TBS-T) (50 mM Tris base, 150 mM sodium chloride (NaCl), 0.1% (v/v) Tween-20) at room temperature for 1 hour.

T1 sequence (Q5S006 whole entry): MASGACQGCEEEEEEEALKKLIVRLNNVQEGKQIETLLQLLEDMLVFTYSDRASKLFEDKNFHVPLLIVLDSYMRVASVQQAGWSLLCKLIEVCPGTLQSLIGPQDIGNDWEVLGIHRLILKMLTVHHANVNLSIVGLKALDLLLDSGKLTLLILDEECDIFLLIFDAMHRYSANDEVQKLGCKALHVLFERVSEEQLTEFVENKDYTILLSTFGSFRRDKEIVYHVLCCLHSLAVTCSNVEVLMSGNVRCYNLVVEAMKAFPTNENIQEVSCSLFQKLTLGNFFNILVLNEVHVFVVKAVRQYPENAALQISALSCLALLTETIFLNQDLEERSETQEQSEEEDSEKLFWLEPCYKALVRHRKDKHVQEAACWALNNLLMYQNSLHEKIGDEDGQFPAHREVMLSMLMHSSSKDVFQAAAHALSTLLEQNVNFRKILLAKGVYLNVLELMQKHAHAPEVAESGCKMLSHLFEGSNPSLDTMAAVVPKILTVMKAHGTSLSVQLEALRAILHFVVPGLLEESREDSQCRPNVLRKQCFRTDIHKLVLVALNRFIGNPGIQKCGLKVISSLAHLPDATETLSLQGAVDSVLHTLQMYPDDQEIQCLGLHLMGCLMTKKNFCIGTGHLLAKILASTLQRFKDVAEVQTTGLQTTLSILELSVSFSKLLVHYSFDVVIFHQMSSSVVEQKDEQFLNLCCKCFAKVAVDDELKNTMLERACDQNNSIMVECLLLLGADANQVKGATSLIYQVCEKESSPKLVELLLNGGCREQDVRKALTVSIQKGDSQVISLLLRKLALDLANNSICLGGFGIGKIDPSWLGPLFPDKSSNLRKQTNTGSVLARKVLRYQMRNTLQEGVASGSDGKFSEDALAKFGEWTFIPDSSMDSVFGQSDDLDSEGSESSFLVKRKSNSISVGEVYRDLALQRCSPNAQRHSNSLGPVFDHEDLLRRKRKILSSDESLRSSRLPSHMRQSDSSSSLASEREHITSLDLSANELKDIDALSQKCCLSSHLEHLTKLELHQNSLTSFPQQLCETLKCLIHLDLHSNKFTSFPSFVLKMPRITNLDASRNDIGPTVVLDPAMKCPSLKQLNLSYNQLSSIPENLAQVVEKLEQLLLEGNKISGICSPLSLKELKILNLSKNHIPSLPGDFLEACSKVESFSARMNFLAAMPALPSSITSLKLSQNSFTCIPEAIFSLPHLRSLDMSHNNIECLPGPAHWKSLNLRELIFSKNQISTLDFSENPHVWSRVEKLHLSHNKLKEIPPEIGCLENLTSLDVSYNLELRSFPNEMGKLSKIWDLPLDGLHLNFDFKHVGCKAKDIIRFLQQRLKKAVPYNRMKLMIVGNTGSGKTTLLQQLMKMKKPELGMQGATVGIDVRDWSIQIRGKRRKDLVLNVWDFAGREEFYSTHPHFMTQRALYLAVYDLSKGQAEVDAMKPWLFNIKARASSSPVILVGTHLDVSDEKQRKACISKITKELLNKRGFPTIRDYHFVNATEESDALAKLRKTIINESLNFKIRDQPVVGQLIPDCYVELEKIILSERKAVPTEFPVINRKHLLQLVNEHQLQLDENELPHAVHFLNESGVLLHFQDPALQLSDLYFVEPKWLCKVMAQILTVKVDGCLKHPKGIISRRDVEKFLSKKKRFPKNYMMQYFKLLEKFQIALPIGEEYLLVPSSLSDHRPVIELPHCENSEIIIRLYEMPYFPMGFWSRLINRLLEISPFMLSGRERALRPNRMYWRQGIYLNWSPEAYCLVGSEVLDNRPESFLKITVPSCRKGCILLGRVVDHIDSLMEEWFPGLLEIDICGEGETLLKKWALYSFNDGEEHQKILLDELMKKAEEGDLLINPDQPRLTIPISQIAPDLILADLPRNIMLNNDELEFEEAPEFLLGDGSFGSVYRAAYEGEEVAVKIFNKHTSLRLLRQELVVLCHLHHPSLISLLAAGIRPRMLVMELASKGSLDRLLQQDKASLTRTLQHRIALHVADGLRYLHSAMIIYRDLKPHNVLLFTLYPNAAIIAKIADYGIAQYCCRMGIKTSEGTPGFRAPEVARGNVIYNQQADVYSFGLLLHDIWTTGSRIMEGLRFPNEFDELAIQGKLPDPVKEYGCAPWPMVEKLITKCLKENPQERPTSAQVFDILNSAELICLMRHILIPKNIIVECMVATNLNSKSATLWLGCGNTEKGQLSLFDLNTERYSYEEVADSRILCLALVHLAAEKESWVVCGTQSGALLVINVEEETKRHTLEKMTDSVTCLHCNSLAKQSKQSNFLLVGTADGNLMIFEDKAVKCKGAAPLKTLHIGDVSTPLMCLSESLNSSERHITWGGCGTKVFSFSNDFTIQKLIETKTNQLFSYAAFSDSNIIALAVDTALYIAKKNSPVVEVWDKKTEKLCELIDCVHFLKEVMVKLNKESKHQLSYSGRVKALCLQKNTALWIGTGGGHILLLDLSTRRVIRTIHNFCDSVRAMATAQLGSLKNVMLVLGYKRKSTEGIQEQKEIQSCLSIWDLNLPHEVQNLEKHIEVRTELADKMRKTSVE
T2 sequence (Q5S006 whole entry G2019S): as the sequence (Q5S006 whole entry) above, with G2019S counted along it

Row | Structure (SMILES) | LRRK2 degradation (in words) [1] | inhibition at 0.033 µM ([2]; 33 nM/4 h treatment) [%] | inhibition at 1 µM ([2]; 1 μM/4 h treatment) [%] | inhibition at 1 µM ([2]; 1 μM/24 h treatment) [%] | inhibition at 0.033 µM ([3]; 33 nM/4 h treatment) [%] | inhibition at 0.033 µM ([3]; 33 nM/24 h treatment) [%] | inhibition at 1 µM ([4]; 1 μM/4 h treatment) [%] | DC50 [5] [µM] | Dmax [5] [%] | DC50 [6] [µM] | Dmax [6] [%] | inhibition at 0.033 µM ([2]; 33 nM/24 h treatment) [%] | EC50 [2] [µM] | inhibition at 1 µM ([4]; 1 μM/24 h treatment) [%] | EC50 [4] [µM]
1 | CNc1nc(Nc2ccc(C(=O)N3CCN(CCCSC(C)(C)[C@H](NC(=O)C4(F)CC4)C(=O)N4C[C@H](O)C[C@H]4C(=O)NCc4ccc(-c5scnc5C)cc4)CC3)cc2OC)ncc1Cl [SD82, (2S,4R)-1-((R)-3-((3-(4-(4-((5-chloro-4-(methylamino)pyrimidin-2-yl)amino)-3-methoxybenzoyl)piperazin-1-yl)propyl)thio)-2-(1-fluorocyclopropane-1-carboxamido)-3-methylbutanoyl)-4-hydroxy-N-(4-(4-methylthiazol-5-yl)benzyl)pyrrolidine-2-carboxamide] | moderate LRRK2 degradation | 0 to 25 | 18 to 90 | 30 to 90 | 0 to 60 | 0 to 70 | 30 to 95 |  |  |  |  |  |  |  | 
2 | CNc1nc(Nc2ccc(C(=O)N3CCN(Cc4ccc(CSC(C)(C)[C@H](NC(=O)C5(F)CC5)C(=O)N5C[C@H](O)C[C@H]5C(=O)NCc5ccc(-c6scnc6C)cc5)cc4)CC3)cc2OC)ncc1Cl [SD100, (2S,4R)-1-((R)-3-((4-((4-(4-((5-chloro-4-(methylamino)pyrimidin-2-yl)amino)-3-methoxybenzoyl)piperazin-1-yl)methyl)benzyl)thio)-2-(1-fluorocyclopropane-1-carboxamido)-3-methylbutanoyl)-4-hydroxy-N-(4-(4-methylthiazol-5-yl)benzyl)pyrrolidine-2-carboxamide] | moderate LRRK2 degradation | 0 to 25 | 18 to 90 | 30 to 90 | 0 to 60 | 0 to 70 | 30 to 95 |  |  |  |  |  |  |  | 
3 | CNc1nc(Nc2ccc(C(=O)N3CCN(C(=O)[C@H]4CC[C@H](CSC(C)(C)[C@H](NC(=O)C5(F)CC5)C(=O)N5C[C@H](O)CC5C(=O)NCc5ccc(-c6scnc6C)cc5)CC4)CC3)cc2OC)ncc1Cl (stereo partly drawn) [XL02068, (2S,4R)-1-((R)-3-((((1R,4R)-4-(4-(4-((5-chloro-4-(methylamino)pyrimidin-2-yl)amino)-3-methoxybenzoyl)piperazine-1-carbonyl)cyclohexyl)methyl)thio)-2-(1-fluorocyclopropane-1-carboxamido)-3-methylbutanoyl)-4-hydroxy-N-(4-(4-methylthiazol-5-yl)benzyl)pyrrolidine-2-carboxamide] |  | 0 to 70 | 80 to 100 | 80 to 100 | 0 to 90 | 30 to 90 | 10 to 100 | 0.093 | 89 | 0.103 | 87 | 0 to 80 | 0.272 | 80 to 100 | 0.15
4 | CNc1nc(Nc2ccc(C(=O)N3CCN(C[C@H]4CC[C@H](CSC(C)(C)[C@H](NC(=O)C5(F)CC5)C(=O)N5C[C@H](O)[C@H](F)C5C(=O)NCc5ccc(-c6scnc6C)cc5)CC4)CC3)cc2OC)ncc1Cl (stereo partly drawn) [XL02152, (2S,3R,4S)-1-((R)-3-((((1r,4R)-4-((4-(4-((5-chloro-4-(methylamino)pyrimidin-2-yl)amino)-3-methoxybenzoyl)piperazin-1-yl)methyl)cyclohexyl)methyl)thio)-2-(1-fluorocyclopropane-1-carboxamido)-3-methylbutanoyl)-3-fluoro-4-hydroxy-N-(4-(4-methylthiazol-5-yl)benzyl)pyrrolidine-2-carboxamide] |  | 20 to 40 | 75 to 90 |  | 20 to 50 |  | 80 to 100 | 0.062 | 68 | 0.044 | 80 |  | 0.144 |  | 0.063
